{
  "source": "paper PMC9698716",
  "about": "“From Serendipity to Rational Identification of the 5,6,7,8-Tetrahydrobenzo[4,5]thieno[2,3-d]pyrimidin-4(3H)-one Core as a New Chemotype of AKT1 Inhibitors for Acute Myeloid Leukemia” (Pharmaceutics, 2022)",
  "key": {"AKT1": {"molecular_target": "T1, AKT1 (Homo sapiens, UniProt P31749)", "T1 construct": "purchased Kinase Logistics, Meyn, Germany #Aps 01-101", "T1 sequence (P31749 whole entry)": "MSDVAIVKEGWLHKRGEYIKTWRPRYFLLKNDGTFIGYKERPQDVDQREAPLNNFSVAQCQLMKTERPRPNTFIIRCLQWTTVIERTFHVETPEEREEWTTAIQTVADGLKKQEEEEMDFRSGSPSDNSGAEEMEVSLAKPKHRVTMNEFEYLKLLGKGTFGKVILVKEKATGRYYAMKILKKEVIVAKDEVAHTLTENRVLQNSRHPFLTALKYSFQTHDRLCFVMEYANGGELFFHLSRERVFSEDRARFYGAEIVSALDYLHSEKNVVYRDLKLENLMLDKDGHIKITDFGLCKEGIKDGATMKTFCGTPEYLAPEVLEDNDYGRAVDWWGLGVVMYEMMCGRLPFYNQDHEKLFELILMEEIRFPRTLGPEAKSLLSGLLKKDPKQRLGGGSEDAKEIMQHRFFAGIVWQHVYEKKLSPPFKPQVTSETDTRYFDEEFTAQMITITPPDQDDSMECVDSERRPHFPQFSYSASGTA", "test": "AKT1 enzymatic inhibition assay", "type": "biochemical", "procedure": "The studied compounds, including the standard inhibitor Staurosporine (Thermo-Fisher , Madrid, Spain, Invitrogen BP2541), were incubated with 3 nM AKT1 (#Aps 01-101; Kinase Logistics, Meyn, Germany) and 1.5 μM Profiler Pro peptide 6 (#760350; Perkin Elmer, Tres Cantos, Madrid, Spain) in the presence of different concentrations of Adenosine 5′triphosphate disodium salt, ATP (#A2383; Sigma Aldrich, Madrid, Spain) in a 384-well Microplate (#781076; Greiner, San Sebastián de los Reyes, Madrid, Spain). The reaction rate was calculated from kinetic measurements carried out measured in a Caliper EzReader LabChip 3000 (Caliper, Hopkinton, MA, USA) reader with samples taken each 10 min for a total time of 60 min. The percentage of substrate conversion rate was plotted versus the ATP concentration. The data was analyzed by non-linear fitting with GraphPad Prism by employing the Michaelis–Menten equation. The buffer assay used in the inhibition hAKT1 assay is: Hepes 100 mM, DMSO 4%, Brij 0.003%, Tween 20 0.004%, MgCl2 10 mM, with a pH = 7.5.\nThe Ki values were calculated by employing the GraphPad Prism equations."}, "[1]": {"test": "Solubility screen assay to determine chemical aggregation (nephelometry)", "type": "physicochemical", "conditions": "AKT1 assay buffer pH 7.5, 37 °C, 2 h, NEPHELOstar Plus", "procedure": "The stock solutions (10–2 M) of the compound T126 were diluted to a decreased molarity, from 100 µM to 0.0001 µM, in 384-well transparent plates (Greiner 781801) with 1% DMSO: 99% buffer Hepes 100 mM, DMSO 4%, Brij 0.003%, Tween 20 0.004%, MgCl2 10 mM, at a pH = 7.5. Incubation occurred at 37 °C and the results were read after 2 h in a NEPHELOstar Plus (BMG LABTECH, Ortenberg, Germany). The results were adjusted to a segmented regression to obtain the maximum concentration in which the compounds were soluble."}, "[2]": {"test_system": "phospho-mTOR, at site S2448", "test": "Western blot of AKT signaling pathway in AML cell lines", "type": "cell-based, human", "conditions": "increasing concentrations (0.5 and 5 µM), 24 and 48 h, OCI-AML3, IMS-M2, OCI-AML2", "procedure": "(§1) Immunoblotting was conducted as described previously. Briefly, fresh cell pellets (0.2–0.5 × 10^6/test for AML cell lines) were dissolved directly in 30–60 μL of Laemmli sample buffer 1× (1.5 M Tris-HCl pH 6.8, glycerol, β-mercaptoethanol, SDS, bromophenol blue) and boiled at 95 °C for 5 min. The proteins were separated by SDS-polyacrylamide gel electrophoresis (SDS-PAGE) on Precast 4–15% gradient gels (Biorad, Hercules, CA, USA) transferred onto nitrocellulose membranes (GE Healthcare, Piscataway, NJ, USA) and probed with specific primary antibodies followed by horseradish peroxidase-conjugated secondary antibodies (GE Healthcare Lifesciences). The polypeptides were visualized using enhanced chemiluminescence (Luminata Crescendo, Merck Millipore, Burlington, MA, USA) according to the manufacturer’s instructions. The bands were visualized using the Biorad Chemidoc and the images were processed using the image lab software (Biorad) and Adobe Photoshop (Ps CC 2019). β-actin expression levels were used as a control for protein loading, as indicated.\n(§2) The primary antibodies used for western blot analyses are the following: mouse monoclonal anti-human β-actin (Clone AC-15; dilution 1:5000) from Sigma Aldrich (St. Louis, MO, USA); rabbit monoclonal anti-human Cleaved poly (ADP-ribose) polymerase (c-PARP) (Clone Asp 214; dilution 1:1000); rabbit monoclonal phospho-Akt (Ser473) (clone D9E, dilution 1.500); rabbit polyclonal phospho-mTOR (Ser2448) (dilution 1:500); rabbit polyclonal phospho-4E-BP1 (Ser65) (dilution 1:500); rabbit monoclonal Akt1 (clone D9R8K, dilution 1:500); rabbit polyclonal 4E-BP1 (dilution 1:500); and rabbit polyclonal mTOR (dilution 1:500), all from Cell Signaling (Cell Signaling Technology, Inc., Danvers, MA, USA)."}, "[3]": {"test_system": "E4-BP1 phosphorylation at site S65", "test": "Western blot of AKT signaling pathway in AML cell lines", "type": "cell-based, human", "conditions": "increasing concentrations (0.5 and 5 µM), 24 and 48 h, OCI-AML3, IMS-M2, OCI-AML2", "procedure": "as §1, §2"}, "[4]": {"test_system": "phospho-AKT, at site S473", "test": "Western blot of AKT signaling pathway in AML cell lines", "type": "cell-based, human", "procedure": "as §1, §2"}, "IMS-M2": {"test_system": "IMS-M2", "test": "Cell growth, viable cell count by trypan blue exclusion", "type": "cell-based, human", "conditions": "IMS-M2, 5 µM, at 48 and 72 h"}},
  "data": [
    {"smiles": "O=c1[nH]c(-c2ccc(O)c(O)c2)nc2sc3c(c12)CCCC3", "note": "[T126]", "values": [
      {"measurement": "IC50", "setting": "AKT1", "result": "1990 ± 110", "unit": "nM"},
      {"measurement": "inhibition at 10 µM", "setting": "AKT1; 10 μM compound, read-out: %inh (percentage of inhibition of AKT1 activity)", "result": 87, "unit": "%"},
      {"measurement": "Ki", "setting": "AKT1; read-out: Ki (AKT1 inhibition constant)", "result": 410, "unit": "nM"},
      {"measurement": "concentration up to which no aggregation occurs", "setting": "[1]", "result": "≥ 100", "unit": "µM"},
      {"measurement": "phosphorylation of mTOR (S2448)", "setting": "[2]", "result": "decreased phosphorylation"},
      {"measurement": "phosphorylation of 4E-BP1 (S65)", "setting": "[3]", "result": "reduction of its phosphorylation levels"},
      {"measurement": "inhibition of p-AKT", "setting": "[4]; OCI-AML3, 4 h, 1 and 2.5 µM", "result": "inhibition of p-AKT was already observed"},
      {"measurement": "phosphorylation of AKT1 (S473)", "setting": "[4]; increasing concentrations (0.5 and 5 µM), 24 and 48 h, OCI-AML3, IMS-M2, OCI-AML2", "result": "decreased phosphorylation"},
      {"measurement": "cell growth inhibition", "setting": "IMS-M2", "result": "significant cell growth inhibition"}
    ]}
  ]
}
